Literature values as cited in patent US7632519B2, “TRPV1 agonist compounds, formulations, prodrugs, methods for using the same” (NeurogesX, Inc., priority 2005, dated 2009).

Conditions: oral dose levels of up to 2 mg/kg, humans

COc1cc(CNC(=O)CCCC/C=C/C(C)C)ccc1O [capsaicin]
adverse effects after oral dosing: without reported adverse effects
